# Assay results as given in US7968710B2, “Prokineticin 1 receptor antagonists” (Janssen Pharmaceutica NV, priority 2005, dated 2011).
# Where “and” joins values, the source holds several entries; their conditions need not be identical. Equal values may be shown once.
# B1: PK1: Recombinant human prokineticin-1 expressed in HEK 293 cells, FLAG cleaved; mixture of full-length ligand and four C-terminal residue truncated product (protein, UniProt P58294 20-105, looked up)
# Prokineticin-1: AVITGACERDVQCGAGTCCAISLWLRGLRMCTPLGREGEECHPGSHKVPFFRKRKHHTCPCLPNLLCSRFPDGRYRCSMDLKNINF
# modifications: mixture with C-terminal 4-residue truncated form
# notes: Recombinant human prokineticin-1 expressed in HEK 293 cells, FLAG cleaved; mixture of full-length ligand and four C-terminal residue truncated product
# Tests used:
# PK1 receptor = PK1 receptor (Rattus norvegicus, UniProt Q8R416); experiment: Inhibition of PK1-evoked increase in Isc by PK1 receptor antagonists in Ussing-type ion flux chambers; details: test compound 1 μM, 15 min incubation, PK1 10 and 100 nM cumulative
# Text: Methodology. The basic methodology for Ussing-type ion flux chambers used in these studies was the same as that described in detail above with the following modifications to the experimental protocol.
# [1] = target: T1, HEK 293 GPR73 (prokineticin 1 receptor) expressing cells (Homo sapiens, UniProt Q8TCW9); experiment: PK1 functional assay: screening for PK1 antagonists on the FLIPR (calcium mobilization); type: cell-based; details: HEK 293 GPR73 cells; for inhibition at 10 µM: HEK293, 10 μM compound, read-out: Ca^2+ Mobilization % Inh @10 μM; for IC50: PK1 ligand at EC50, read-out: Ca^2+ Mobilization IC50; for Ca^2+ Mobilization % Inh @10 μM: 10 μM compound
# T1 construct: expressed in transfected cells; host or cells: HEK 293
# Procedure: Screening Procedure for PK1 Antagonists on the Fluorometric Imaging Plate Reader (FLIPR)
# At a time of 24 h prior to running the assay, in cell culture media (DMEM containing high Glucose and L-glutamine, 10% FBS, 1% Pen/Streptomycin, 1% Sodium Pyruvate, 20 mM HEPES, Zeocin 200 mg/L), 100 μL of 1.3*10^6/ml HEK 293 GPR73 (prokineticin 1 receptor) expressing cells were plated in a 96 well poly-d-lysine coated plate (Costar), and incubated at 37 C and 5% CO2. On the day in which the assay was run, the media was removed and 200 μL of 5× Calcium Plus Dye (Molecular Devices) which was previously resuspended with 200 mL of assay buffer [HBSS w/Ca^2+ and Mg^2+ w/o phenol red, 20 mM HEPES, 0.1% BSA, 10 mL probenecid (710 mg probenecid in 5 mL of 1N NaOH, to which was then added 5 mL HBSS containing 20 mM HEPES)] was added to each well of the 96-well plate. The plate was incubated at 37 C and 5% CO2 for 30 min in dark. The plate was removed and allowed to reach RT for 15 min in the dark. The assay was then run on the FLIPR. […] Baseline is described as the amount of relative fluorescence read when buffer alone is added to cells. Baseline was subtracted from all wells. Percent of control was calculated as follows: (Baseline subtracted well value is divided by baseline subtracted max value)*100. Percent inhibition is 100 minus the percent of control value.
# IC50 values were calculated using GraphPad Prism.
# rat ileal tissues = experiment: Effect of PK1 on secretion and gut mucosal ion transport (short-circuit current, Ussing-type flux chamber)
# [2] = test system: ileum mucosal tissues from PK1 receptor knock-out mice; experiment: PK1-evoked Isc in ileum mucosal tissues from PK1 receptor knock-out mice; details: exogenous PK1 peptide, PK1 receptor knock-out mice ileum mucosa
# Sequence of PK1 receptor (Q8R416 whole entry): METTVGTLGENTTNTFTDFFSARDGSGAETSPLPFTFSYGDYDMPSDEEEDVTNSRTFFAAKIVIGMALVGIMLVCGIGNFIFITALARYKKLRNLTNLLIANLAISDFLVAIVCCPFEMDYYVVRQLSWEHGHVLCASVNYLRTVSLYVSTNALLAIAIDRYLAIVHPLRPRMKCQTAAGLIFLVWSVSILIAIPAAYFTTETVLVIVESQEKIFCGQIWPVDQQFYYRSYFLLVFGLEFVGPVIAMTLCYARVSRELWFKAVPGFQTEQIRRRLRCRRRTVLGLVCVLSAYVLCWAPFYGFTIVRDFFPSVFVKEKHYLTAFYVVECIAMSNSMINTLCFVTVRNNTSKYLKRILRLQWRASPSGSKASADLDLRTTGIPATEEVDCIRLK
# T1 sequence (Q8TCW9 whole entry): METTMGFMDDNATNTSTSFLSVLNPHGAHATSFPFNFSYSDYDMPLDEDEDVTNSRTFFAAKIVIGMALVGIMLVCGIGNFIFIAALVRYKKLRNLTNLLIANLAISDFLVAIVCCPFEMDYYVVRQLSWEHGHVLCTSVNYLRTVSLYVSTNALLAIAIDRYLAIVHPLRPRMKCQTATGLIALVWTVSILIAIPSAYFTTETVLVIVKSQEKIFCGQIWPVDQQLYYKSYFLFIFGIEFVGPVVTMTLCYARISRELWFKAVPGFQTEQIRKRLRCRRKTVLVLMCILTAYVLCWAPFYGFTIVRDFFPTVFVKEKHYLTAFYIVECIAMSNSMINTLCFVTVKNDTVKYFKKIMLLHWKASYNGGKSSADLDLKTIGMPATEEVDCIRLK
Molecule,inhibition at 10 µM [1] [%],IC50 [1],Ca^2+ Mobilization % Inh @10 μM [1],further results
COc1ccc(Cn2c(NCCNC(=N)N)nc(=O)n(Cc3ccccc3)c2=O)cc1 [Cpd 2],,,,inhibition of the PK1 evoked increase in Isc (PK1 receptor): successfully achieved
N=C(N)NCCNc1nc(=O)n(Cc2ccccc2)c(=O)n1Cc1ccc([N+](=O)[O-])cc1 [Cpd 9],35,> 10000 nM,,
COc1ccc(Cn2c(NCCONC(=N)N)nc(=O)n(Cc3ccccc3)c2=O)cc1 [Cpd 10],,,33%,
"COc1ccc(Cn2c(NCCNC(=N)N)nc(=O)n(Cc3ccc(F)cc3)c2=O)cc1 [Cpd 17, N-{2-[5-(4-Fluoro-benzyl)-1-(4-methoxy-benzyl)-4,6-dioxo-1,4,5,6-tetrahydro-[1,3,5]triazin-2-ylamino]-ethyl}-guanidine]",,,,inhibition of the PK1 evoked increase in Isc (PK1 receptor): successfully achieved
COc1ccc(Cn2c(N[C@@H]3CCCC[C@H]3NC(=N)N)nc(=O)n(Cc3ccc(Cl)c(Cl)c3)c2=O)cc1 [Cpd 47],101,57 nM,,
"COc1ccc(Cn2c(NCCNC(=N)NC(C)C)nc(=O)n(Cc3ccc(Cl)c(Cl)c3)c2=O)cc1 [Cpd 58, N-{2-[5-(3,4-Dichloro-benzyl)-1-(4-methoxy-benzyl)-4,6-dioxo-1,4,5,6-tetrahydro-[1,3,5]triazin-2-ylamino]-ethyl}-N′-isopropyl-guanidine]",102,7 nM and 16 nM (2×),,Ca^2+ Mobilization % Inh @10 μM ([1]; 10 µM): 99% and 98%; inhibition of the PK1 evoked increase in Isc (PK1 receptor): successfully achieved
COc1ccc(Cn2c(NCCNC(=N)NCCc3ccccc3)nc(=O)n(Cc3ccc(Cl)c(Cl)c3)c2=O)cc1 [Cpd 65],,485 nM,88%,
"COc1ccc(Cn2c(NCCNC(=N)Nc3ccc(C#N)cc3)nc(=O)n(Cc3ccc(F)cc3)c2=O)cc1 [Cpd 90, N-(4-Cyano-phenyl)-N′-{2-[5-(4-fluoro-benzyl)-1-(4-methoxy-benzyl)-4,6-dioxo-1,4,5,6-tetrahydro-[1,3,5]triazin-2-ylamino]-ethyl}-guanidine]",100,31 nM and 43 nM (2×),,Ca^2+ Mobilization % Inh @10 μM ([1]; 10 µM): 100% and 101%
"COc1ccc(Cn2c(NCCN(C(=N)N)c3ccccn3)nc(=O)n(Cc3ccc(F)cc3)c2=O)cc1 [Cpd 104, N-{2-[5-(4-Fluoro-benzyl)-1-(4-methoxy-benzyl)-4,6-dioxo-1,4,5,6-tetrahydro-[1,3,5]triazin-2-ylamino]-ethyl}-N-pyridin-2-yl-guanidine]",,11 nM,,Ca^2+ Mobilization % Inh @10 μM ([1]; 10 µM): 99% and 102%
COc1ccc(Cn2c(NCCNC(=N)NCCc3ccccn3)nc(=O)n(Cc3ccc(F)cc3)c2=O)cc1 [Cpd 105],,89 nM,100%,
[H]/N=C(\N)NCCNc1nc(=O)n(Cc2ccc(OC(C)(C)C)cc2)c(=O)n1Cc1ccc(OC)cc1 [Cpd 109],99,129 nM,,
"COc1ccc(Cn2c(NCCNC(=N)Nc3ccccc3F)nc(=O)n(Cc3ccc(F)cc3)c2=O)cc1 [Cpd 118, N-{2-[5-(4-Fluoro-benzyl)-1-(4-methoxy-benzyl)-4,6-dioxo-1,4,5,6-tetrahydro-[1,3,5]triazin-2-ylamino]-ethyl}-N′-(2-fluoro-phenyl)-guanidine]",98,6 nM,,Ca^2+ Mobilization % Inh @10 μM ([1]; 10 µM): 102%
COc1ccc(Cn2c(NCCNC(=N)N)nc(=O)n(CC3CCCC3)c2=O)cc1 [Cpd 124],,1560 nM,74%,
"COc1ccc(Cn2c(NCCNC(=N)NC(=O)c3ccccc3)nc(=O)n(Cc3ccc(F)cc3)c2=O)cc1 [Cpd 134, N-Benzoyl-N′-{2-[5-(4-fluoro-benzyl)-1-(4-methoxy-benzyl)-4,6-dioxo-1,4,5,6-tetrahydro-[1,3,5]triazin-2-ylamino]-ethyl}-guanidine]",97,19 nM and 28 nM,"97, 97%",
"N-{2-[5-Benzyl-1-(4-methoxy-benzyl)-4,6-dioxo-1,4,5,6-tetrahydro-[1,3,5]triazin-2-ylamino]-ethyl}-oxyguanidine [Cpd 27]",,1970 nM,55%,
B1,,,,"increase in Isc from baseline (rat ileal tissues; 10 nM PK1, […], n=33 tissues from 22 rats): 13.5±2. μA/cm^2; increase in Isc from baseline (rat ileal tissues; 100 nM PK1, […], n=42 tissues from 29 rats): 28.7±2.9 μA/cm^2; concentration at which the maximal PK1-evoked response occurred (rat ileal tissues; […]): 100 nM; effect on tissue conductance (G) (rat ileal tissues; […]): no significant effect; time for Isc to decline back toward baseline (rat ileal tissues; basolateral addition, […]): 10 to 15 min; time to peak Isc after single-dose addition (rat ileal tissues; basolateral addition, […]): 2 to 4 min; pro-secretory effect in the presence of Atropine (rat ileal tissues; blockade of muscarinic receptors): not blocked; pro-secretory effect in the presence of Tetrodotoxin (TTX) (rat ileal tissues; nerve conduction toxin present): not blocked; change in Isc compared to wild-type littermates [2]: failed to elicit a significant change in Isc"
